Results on twelve compounds are retold here after US11884708B2, “Stapled peptide inhibitors of nemo as potential anti-inflammatory and anti-cancer drugs” (INSTITUT PASTEUR, priority 2015, dated 2024).

Where a SMILES comes first, the peptide text is derived from it. Bridges are numbered along the chain shown (N, C = ends). [ ]: non-standard residue; d: D form. The star is where a group is joined. Succinimide(1-Et,3-yl) = CCN1C(=O)CC(*)C1=O; R8 = C=CCCCCCC[C@@](C)(N)C(=O)O; S5 = C=CCCC[C@](C)(N)C(=O)O; code Z = not defined here; Cbz = O=C(OCc1ccccc1)*; CH2F = FC*

The term EC50 denotes the concentration that produces a half-maximal response. Broadly, the IC50 is the midpoint of a concentration-inhibition curve.

Series [1] concerns HLY1 (ABC-DLBCL, MALT1 independent). The series can be described thus: Cell death assay (CellTiter-Blue resazurin). In kind it is cell-based, human. The conditions noted are these: for cell death: HLY1, 7 h; for EC50: Homo sapiens. The method, then:
(§1) The CellTiter-Blue® Cell Viability kit assay purchased from Promega was used to assess the cell death induced by NEMO stapled peptides in ABC- and GCB-DLBCL cell lines. […] Cells were considered 100% death when the fluorescence intensity value was the same as the one with the medium alone or with the cells treated with the cycloheximide protein synthesis inhibitor at 25 μM (Sigma Aldrich).
(§2) For each time point measurement 100 μl of cell samples were withdrawn at different incubation times (7 h, 24 h and 48 h) and subjected to resazurin assay for one hour at 37° C. in the CO2 incubator by adding and mixing for 10 sec 20 μl of resazurin. Fluorescence measurements were performed with a TECAN infinite F500 instrument at 560 nm excitation wavelength and 590 nm emission wavelength. Viability of cells at time 0 was determined just before adding compound and all experiments were performed in duplicate.
(§3) The percentage of cell death was calculated according to the following formula: (1−((RFUobs−blank)/(RFU100% viability−blank))*100), where RFUobs corresponds to the cells viability observed in the presence of compound, RFU100% viability, the initial cells viability and blank the background fluorescence measured using the medium alone.
(§4) The EC50 value was calculated by plotting the percentage of cell death as function of the compound concentration and fitting the experimental curve with the following formula: (A*P0)/(EC50+P0), where A is the amplitude of fluorescence, P0 is the peptide concentration.
(§5) To compare the inhibition efficiency of BA-UBI-SAHND306-Q313 with IKK inhibitors (MLN120B, MedChem Express) or IKKα/β inhibitor (TPCA1, R&D systems), 25,000 DLBCL cells (OCI-Ly3) were incubated for 7 h with an increasing concentration of IKK inhibitors ranging from 0 to 50 μM, and the amount of cell death was then determined using CellTiter-Blue® Cell Viability kit assay. For the MI-2 MALT1 inhibitor (Fontan et al., 2012, Cancer cell 22, 812-824), similar experiments were carried out in MALT dependent (OCI-Ly3) and independent (HLY1) DLBCL cells using a 0-25 μM range.

In series [2] the test system is OCI-Ly3 (ABC-DLBCL, MALT1 dependent). The series can be described thus: Cell death assay (CellTiter-Blue resazurin). The class given is cell-based, human. The method, then:
as §1, §2, §3, §4, §5
In general terms: Resazurin is reduced to fluorescent resorufin, in cell work by metabolically active cells.

Series [3] deals with OCI-Ly3 DLBCL cells. The series can be described thus: Protection from cell death induced by NEMO stapled inhibitor by apoptosis and necroptosis inhibitors. In kind it is cell-based, human. To be noted: OCY-Ly3 pre-treated with inhibitor, then A-UBI-SAHND306-Q313.
Protocol: Ferrostatin-1, an inhibitor of ferroptosis (Sigma Aldrich) was used at 25 μM, the mixture of pepstatin-A and E64D (Sigma Aldrich), inhibitors of lysosomal cathepin D and cathepsin B, respectively, at 25 μM each and Cyclosporin A (Sigma Aldrich), a CypD inhibitor, at 25 μM. In all experiments, the effect of different DMSO concentration on cell viability was measured and taken into account, and fluorescence background was measured using cell free medium containing inhibitors.
Series [4] can be described thus: circular dichroism. The conditions noted are these: 10 mM sodium phosphate; pH 7; 1 °C; 50 uM. (In general: Circular dichroism is widely used to follow secondary structure.)
Series [5] has as its system 70Z3-C3 cells. Kind of series: Cellular uptake of BODIPY-labeled peptides by FACS. The class given is cell-based. To be noted: 2 h incubation, flow cytometry. On the technique in general: Flow cytometry measures light scatter and fluorescence of single cells or particles in a stream.
Series [6] has as its system OCI-Ly7 (GCB-DLBCL). The series can be described thus: Cell death assay (CellTiter-Blue resazurin). In kind it is cell-based, human. To be noted: OCY-Ly7, no constitutive NF-κB activation. The method, then: as §1, §2
The percentage of cell death was calculated according to the following formula: (1−((RFUobs−blank)/(RFU100% viability−blank))*100), where RFUobs corresponds to the cells viability observed in the presence of compound, RFU100% viability, the initial cells viability and blank the background fluorescence measured using the medium alone. […]

Series [7] concerns the target T1, IKKα (Homo sapiens, UniProt O15111).
T1 sequence (O15111 1-745): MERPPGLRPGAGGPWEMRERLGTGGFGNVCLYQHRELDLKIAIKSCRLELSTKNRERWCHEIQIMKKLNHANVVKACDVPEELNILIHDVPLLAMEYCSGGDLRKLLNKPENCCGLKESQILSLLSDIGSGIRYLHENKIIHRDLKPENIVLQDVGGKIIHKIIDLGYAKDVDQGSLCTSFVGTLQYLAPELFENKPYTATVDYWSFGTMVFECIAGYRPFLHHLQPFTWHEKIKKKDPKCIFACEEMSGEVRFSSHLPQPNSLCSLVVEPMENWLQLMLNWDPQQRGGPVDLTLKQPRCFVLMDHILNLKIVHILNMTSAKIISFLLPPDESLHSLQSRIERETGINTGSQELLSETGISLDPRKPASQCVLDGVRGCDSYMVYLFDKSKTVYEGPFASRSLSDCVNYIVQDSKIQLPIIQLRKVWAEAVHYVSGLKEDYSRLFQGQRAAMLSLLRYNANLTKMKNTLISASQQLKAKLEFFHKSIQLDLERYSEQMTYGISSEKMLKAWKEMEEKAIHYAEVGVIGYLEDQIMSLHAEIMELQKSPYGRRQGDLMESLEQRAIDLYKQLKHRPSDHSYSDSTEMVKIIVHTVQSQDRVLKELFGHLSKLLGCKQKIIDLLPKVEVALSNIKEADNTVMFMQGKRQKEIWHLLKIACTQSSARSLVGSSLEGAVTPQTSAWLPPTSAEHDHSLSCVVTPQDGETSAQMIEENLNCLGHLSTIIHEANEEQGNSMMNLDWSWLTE
The conditions noted are these: reported; cited from earlier work.

In the case of “Z-Val-Arg-Pro-Arg-fluoromethylketone ({code Z}-VRPR-CH2F; reading uncertain; also: printed as Z-Val-Arg-Pro-Arg-fluoromethylketone) [Z-VRPR-fmk]”, the “cell death, in words” value in series [1] (HLY1, for at least 48 h) is listed as “did not induce any cell death”. For the same compound, in series [2] (OCI-Ly3, 48 h), the cell death entry is “very little cell death”.

Turning to `COc1nccnc1NS(=O)(=O)c1ccc(NC(=O)/C=C/c2ccc([N+](=O)[O-])s2)cc1` [NSA, necrosulfonamide], the “protection to cell death induced by NEMO stapled inhibitor, in words” value in series [3] is reported as “significantly rescued”.

As to `CC(C)S(=O)(=O)c1ccc2nccc(Nc3ccc4scnc4c3)c2c1` [GSK872], in series [3], the “protection to cell death induced by NEMO stapled inhibitor, in words” value is on record as “significantly rescued”.

`COC(=O)C[C@H](NC(=O)[C@H](C)NC(=O)[C@@H](NC(=O)OCc1ccccc1)C(C)C)C(=O)CF` [Z-VAD-fmk] (Cbz-Val-Ala-Asp(OMe)-CH2F): in series [3], the “protection to cell death induced by NEMO stapled inhibitor, in words” value is “did not provide any protection”.

Take `COCCOc1nc(-c2ccc(Cl)c(Cl)c2)n(-c2ccc(NC(=O)CCl)cc2)n1` [MI-2]: the cell death entry in series [1] is recorded as “more resistant”. Besides, in series [2] (OCI-Ly3, 7 h), a half-maximal response (EC50) required 2.5 ± 0.05 µM.

As for `CC[C@H](C)[C@@H]1NC(=O)[C@H](CC(=O)O)NC(=O)[C@H](C)NC(=O)[C@H](CCC(N)=O)NC(=O)[C@](C)(NC(=O)[C@H](CCCCN)NC(=O)[C@H](CC(C)C)NC(=O)[C@H](CSC2CC(=O)N(CC)C2=O)NC(C)=O)CCCCCC/C=C\CCC[C@@](C)(C(=O)N[C@@H](CCCNC(=N)N)C(=O)N[C@@H](Cc2ccccc2)C(=O)N[C@@H](CCC(N)=O)C(=O)N[C@@H](C)C(=O)N[C@@H](CCC(=O)O)C(=O)N[C@@H](CCCNC(=N)N)C(=O)N[C@@H](Cc2c[nH]cn2)C(=O)N[C@@H](C)C(=O)N[C@@H](CCCNC(=N)N)C(=O)N[C@@H](CCC(=O)O)C(=O)N[C@@H](CCCCN)C(N)=O)NC(=O)[C@H](CCCCN)NC(=O)[C@H](Cc2ccc(O)cc2)NC1=O` (stereo partly shown) (Ac-C(Succinimide(1-Et,3-yl))LK[R8]QADIYK[S5]RFQAERHAREK-NH2; staple (Z) 4-11), the helicity in series [4] is 63 rel %.

Regarding `CC[C@H](C)[C@@H]1NC(=O)[C@H](CC(=O)O)NC(=O)[C@H](C)NC(=O)[C@H](CCC(N)=O)NC(=O)[C@](C)(NC(=O)[C@H](CCCCN)NC(=O)[C@H](CC(C)C)NC(=O)[C@H](CSC2CC(=O)N(CC)C2=O)NC(C)=O)CCCCCC/C=C/CCC[C@@](C)(C(=O)N[C@@H](CCCNC(=N)N)C(=O)N[C@@H](Cc2ccccc2)C(=O)N[C@@H](CCC(N)=O)C(=O)N[C@@H](C)C(=O)N[C@@H](CCC(=O)O)C(=O)N[C@@H](CCCNC(=N)N)C(=O)N[C@@H](Cc2c[nH]cn2)C(=O)N[C@@H](C)C(=O)N[C@@H](CCCNC(=N)N)C(=O)N[C@@H](CCC(=O)O)C(=O)N[C@@H](CCCCN)C(N)=O)NC(=O)[C@H](CCCCN)NC(=O)[C@H](Cc2ccc(O)cc2)NC1=O` (stereo partly shown) (Ac-C(Succinimide(1-Et,3-yl))LK[R8]QADIYK[S5]RFQAERHAREK-NH2; staple (E) 4-11), the helicity in series [4] is 80 rel %.

Consider `CC[C@H](C)[C@H](NC(=O)[C@H](CCCCN)NC(=O)[C@@H](NC(=O)[C@H](CCC(N)=O)NC(=O)[C@H](CCCNC(=N)N)NC(=O)[C@H](CSC1CC(=O)N(CC)C1=O)NC(C)=O)[C@@H](C)CC)C(=O)N[C@@H](Cc1c[nH]c2ccccc12)C(=O)N[C@@H](Cc1ccccc1)C(=O)N[C@@H](CCC(N)=O)C(=O)N[C@@H](CC(N)=O)C(=O)N[C@@H](CCCNC(=N)N)C(=O)N[C@@H](CCCNC(=N)N)C(=O)N[C@@H](CCSC)C(=O)N[C@@H](CCCCN)C(=O)N[C@@H](Cc1c[nH]c2ccccc12)C(=O)N[C@@H](CCCCN)C(=O)N[C@@H](CCCCN)C(=O)N[C@@H](CC(C)C)C(=O)N[C@@H](CCCCN)C(=O)N[C@@H](C)C(=O)N[C@@H](CCC(N)=O)C(=O)N[C@@H](C)C(=O)N[C@]1(C)CCCCCCC=CCCC[C@@](C)(C(=O)N[C@@H](C)C(=O)N[C@@H](CCC(=O)O)C(=O)N[C@@H](CCCNC(=N)N)C(=O)N[C@@H](Cc2c[nH]cn2)C(=O)N[C@@H](C)C(=O)N[C@@H](CCCNC(=N)N)C(=O)N[C@@H](CCC(=O)O)C(=O)N[C@@H](CCCCN)C(N)=O)NC(=O)[C@H](Cc2ccccc2)NC(=O)[C@H](CCCNC(=N)N)NC(=O)[C@H](C)NC(=O)[C@H](CCCCN)NC(=O)[C@H](Cc2ccc(O)cc2)NC(=O)[C@H]([C@@H](C)CC)NC1=O` (stereo partly shown) [A-UBI-SAHN D306-Q313] (Ac-C(Succinimide(1-Et,3-yl))RQIKIWFQNRRMKWKKLKAQA[R8]IYKARF[S5]AERHAREK-NH2; staple 23-30), for which the “intracellular delivery at 4° C. lower than at 37° C.” value in series [5] came to 58%. For the same compound, the “more potent than ML120B” value in series [1] (HLY1) is recorded as 70 ×. Besides, in series [1], the cell death is 100%. The “times more potent than ML120B IKKβ inhibitor” value in series [2] (OCI-Ly3) is listed as “about 50 times”. In series [2] (OCI-Ly3, 7 h), this compound came in with an EC50 of 2.6 ± 0.5 µM and a cell death of 100%. For the same compound, in series [6], the “cell death, in words” value is “no cell death”.

Consider `CN1C(=O)C(Cc2c[nH]c3ccccc23)NC1=S` (stereo not shown) [Nec1, necrostatin-1], for which the “protection to cell death induced by NEMO stapled inhibitor, in words” value in series [3] is given as “totally prevent”.

On to `CCN1C(=O)CC(SC[C@H](NC(C)=O)C(=O)N[C@@H](CC(C)C)C(=O)N[C@@H](CCCCN)C(=O)N[C@@]2(C)CCCC=CCCC[C@@](C)(C(=O)N[C@@H](Cc3ccc(O)cc3)C(=O)N[C@@H](CCCCN)C(=O)N[C@@H](C)C(=O)N[C@@H](CCCNC(=N)N)C(=O)N[C@@H](Cc3ccccc3)C(=O)N[C@@H](CCC(N)=O)C(=O)N[C@@H](C)C(=O)N[C@@H](CCC(=O)O)C(=O)N[C@@H](CCCNC(=N)N)C(=O)N[C@@H](Cc3c[nH]cn3)C(=O)N[C@@H](C)C(=O)N[C@@H](CCCNC(=N)N)C(=O)N[C@@H](CCC(=O)O)C(=O)N[C@@H](CCCCN)C(N)=O)NC(=O)[C@H](CC(=O)O)NC(=O)[C@H](C)NC(=O)[C@H](CCC(N)=O)NC2=O)C1=O` (stereo partly shown) (Ac-C(Succinimide(1-Et,3-yl))LK[S5]QAD[S5]YKARFQAERHAREK-NH2; staple 4-8), for which the helicity in series [4] is 70 rel %.

As for `COc1c(Cl)cc2c([nH]c3cnccc32)c1NC(=O)c1cccnc1C` [MLN120B], the cell death result is recorded as “No cell death” in series [1] and 52% in series [2] (OCI-Ly3, 48 h). Besides, the EC50 in series [1] (HLY1, 24 h) was determined as 70 ± 2 µM; in series [1] (HLY1, 48 h) it was 78 ± 2 µM; in series [2] (Homo sapiens, OCI-Ly3, 48 h) it was 125 ± 10 µM.

In the case of `NC(=O)Nc1sc(-c2ccc(F)cc2)cc1C(N)=O` [TPCA-1], in series [2] (OCI-Ly3, 7 h), the cell death result is listed as “no significant additional effect”. Further, in series [7], the IC50 was 0.4 µM.
